# Assay results from patent publication US10500219B2, “Compositions and methods for tissue regeneration” (ORBIS HEALTH SOLUTIONS LLC, priority 2012, dated 2019).
# Tested on: chronic Foot Rot
# Test: Chronic Foot Rot with proliferative mass in a heifer (Example 25)
# Assay type: in vivo, American Shorthorn heifer
# Details: injectable antibiotic for 7 days, before cream treatment
# Excerpt: A two-year old female American Shorthorn heifer was presented with lameness and a proliferative mass (3″ in diameter)with associated swelling and large dense scab between the digits of the left hind foot diagnosed as chronic Foot Rot. […] After 4 months lameness reoccurred and the area again became inflamed. […] A surgical consultation determined that the area needed to be surgically excised under general anesthesia. Due to late term pregnancy, surgery was postponed until after delivery. While waiting for surgery, the cream of Example 18 was applied once daily by massaging the cream into the area between the digits. […] No surgery or further antibiotic therapy was anticipated. FIG. 11A depicts the infection in the left hind foot before treatment and FIG. 11B depicts the infected area after 3 weeks of treatment with the cream of Example 18.
smiles,measurement,value
CS(=O)(=O)c1ccc([C@@H](O)[C@@H](CF)NC(=O)C(Cl)Cl)cc1 [Nuflor],lameness,reduced lameness
same,reduction of mass size,approximately ⅓
